# Literature values in patent publication US20140187635A1, “DICLOFENAC COMPOSITIONS” (THEMIS MEDICARE LIMITED, priority 2012, published 2014).
# Like-named read-outs stand apart in the source and are kept apart here.
# Legend:
# Dog = conditions: intravenous
# rat = conditions: in vivo, iv
# rabbit = conditions: intravenous
smiles,measurement,setting,value
"CCOCCOCCO [Transcutol, diethylene glycol monoethyl ether]",eyes: rabbit,eyes: rabbit,500 mg
same,LD50,"mouse; in vivo, ip",2300 mg/kg
same,LD50,mouse; intravenous,4300 µL/kg
same,LD50 (subcutaneous: mouse),mouse; subcutaneous,5500 µL/kg
same,LD50,Dog,3 mL/kg
same,LD50,rat,4000 mg/kg
same,LD50,rabbit,2500 µL/kg
